Here are results for 1 compound from patent US6652479B2, “Method and apparatus for transcutaneous infusion of carbon dioxide for local relief of pain and other ailments” (Capnia, Inc., priority 2000, dated 2003).

Where only a bound is given, the exact number is not on record here.

The nature of data set [1]: in vitro rate of CO2 absorption by water-soaked paper towel (funnel / oil bolus apparatus). The format is physicochemical. The following applies: 80-cm^2 area test surface, several tests. The method, then: To determine the inherent rate of absorption and diffusion of CO2 in a “passive” aqueous medium a preliminary in vitro experiment was performed. The apparatus and method employed for measuring the rate of CO2 absorption by a surface is illustrated in FIG. 1. The device was placed on a table top 150, and comprised a source of CO2 in the form of a cylinder 101 and a flow regulator 110, including a pressure regulator 112 and flow meter 113. Polyethylene tubing 115 of approximately 0.2 cm^2 lumen connected the cylinder 101 to a glass funnel 120 having a maximum area of 80 cm^2. An additional length of tubing 125 was used for measurement of changes in gas volume. This gas volume measurement means used in the experiment could be eliminated in a device intended to administer CO2 to a patient's skin surface. The entire system was purged of air by prolonged CO2 flow. The additional length of tubing 125 was purged first, then a bolus of low-volatility (forepump) oil 130 was inserted into its open end and the end plugged. […]
Next, the funnel was placed on test surface 140 of a 0.4-mm thick water-soaked paper towel having about the same thickness as skin. […] The observed initial rate of absorption determined from several such tests fell in the range 0.6-1.2 ml/min, and saturation occurred at 4-10 ml, for the 80-cm^2 area test surface. […]

The test system of data set [2] is skin on the right anterior thigh. Put plainly: rate of transcutaneous absorption of gaseous CO2 into a human body (funnel on wet skin). The data set is classed as in vivo. The method, then:
To determine the inherent rate of absorption and diffusion of CO2 in a “passive” aqueous medium a preliminary in vitro experiment was performed. The apparatus and method employed for measuring the rate of CO2 absorption by a surface is illustrated in FIG. 1. The device was placed on a table top 150, and comprised a source of CO2 in the form of a cylinder 101 and a flow regulator 110, including a pressure regulator 112 and flow meter 113. Polyethylene tubing 115 of approximately 0.2 cm^2 lumen connected the cylinder 101 to a glass funnel 120 having a maximum area of 80 cm^2. An additional length of tubing 125 was used for measurement of changes in gas volume. This gas volume measurement means used in the experiment could be eliminated in a device intended to administer CO2 to a patient's skin surface. The entire system was purged of air by prolonged CO2 flow. The additional length of tubing 125 was purged first, then a bolus of low-volatility (forepump) oil 130 was inserted into its open end and the end plugged. The funnel 120 was then purged with its open end resting on a portion of the selected test surface 140 immediately adjacent to the portion to be tested, and with the purge flow escaping at its edge. At zero time the purge flow was terminated, the plug in the tube 125 end was removed and the funnel was slid onto the test portion of the surface without breaking the seal between the funnel edge and the wet surface. The displacement of the oil bolus 130 within the 0.20 cm^2 lumen of the tube 125 was then observed as CO2 gas was removed from the closed system via absorption in the surface 140; i.e., each cm of displacement corresponded to absorption of 0.20 cc of gas by 80 cm^2 of test surface.
An area of skin on the right anterior thigh sufficiently large for two positions of the funnel 120 applicator was washed thoroughly and soaked with water for fifteen minutes. The funnel 120 was purged of air by prolonged CO2 flow (for about 10 minutes) while seated on the wet skin in the upper thigh position 160, and then was slid to the lower thigh position 170 at zero time. […] In other words, it appeared that less than <0.1 ml of gas was absorbed. […] Therefore, the inventors concluded that some quantity of CO2, sufficient to cause the observed vascular effects, must have diffused into the skin. Therefore, the inventors continued with their experiments to determine if a transcutaneous application of CO2 would reduce local pain.

The test system of data set [3] is allergic rhinitis attack. Put plainly: treatment of allergic rhinitis by carbonated water nasal spray. The format is in vivo, human. The following applies: carbonated water spray and gaseous CO2 infusion used alternately over a day, one subject. The text has this: Because of the observed similarity of the physiological effects of gaseous CO2 and a […] solution (carbonated water) applied to the skin, the inventors believed that a […] solution might be effective for treatment of upper respiratory indications for which infusion of gaseous CO2 is effective. With reference to FIG. 5, to test this hypothesis, a 70-ml commercially marketed plastic “squeeze” bottle 510 for dispensing a physiological saline spray was 3⁄4 filled with fresh effervescing carbonated water. The carbonated water spray was then sprayed into the nose of a subject 520 who was suffering a mild allergic rhinitis attack. […] During the course of a day as allergic rhinitis attacks reoccurred, the carbonated water spray and gaseous CO2 infusion were used alternately and their relative effectiveness assessed. […] The disagreeable aspects cited were the discomfort associated with a liquid being sprayed up the nose and the messiness of the effluent liquid from the nose after the spray. Nevertheless, the carbonated nasal spray is a distinct alternative for treatment of the upper respiratory distress indications, and shares many of the advantages of a gaseous CO2 infusion treatment including effectiveness, ease of use, rapid relief on demand, unlimited dose, low cost, and freedom from aftereffects and other contraindications associated with the use of drugs. […]

In data set [4] the test system is muscular-skeletal pain conditions (cervico-cranial syndrome, cervico-brachial syndrome, lumbalgia). The following applies: cited from earlier work.
The mark [5] stands for this setting: after subcutaneous injection of 100-200 ml CO2 gas.
Where [6] appears, read: of 335 patients treated, 100-200 ml CO2 gas injected under the skin, 10-15 injections over 2-5 weeks.

Take `O=C=O` [CO2, carbon dioxide]: in data set [1], the “absorbed gas volume at saturation” value is 4 to 10 mL and the “initial rate of absorption of gaseous CO2” value was in the range of 0.6 to 1.2 mL/min. The “skin reaction over region in contact with CO2” value in data set [2] (after about 10 minutes contact with gaseous CO2) is given as “a hyperemia was observed”. Moreover, in data set [2] (gaseous CO2 on wet skin), the aftereffects result is “no observed aftereffects”, the “time for reddening to develop in contact with CO2” value is listed as “three to five” and the “time for reddening to subside after removal of the CO2” value was “a similar period”. Moreover, the “gas absorbed by the skin” value in data set [2] (wet skin, 80 cm^2 funnel, about 10 minutes, several tests) is below 0.1 mL. Moreover, the “relative effectiveness for relief and suppression of allergic rhinitis symptoms” value in data set [3] is “equally effective”. In addition, in data set [4] (setting [5]), the “diameter of gas emphysemum at injection site” value is on record as around 8 cm; the “skin reaction at the injection site” value is given as “mild hyperemia”; the “time for gas emphysemum and hyperemia to disappear after the injection” value was 3 to 5 min. For the same compound, in data set [4] (setting [6]), the “patients improved with some remaining distress” value is recorded as 157, the “patients who became difficulty-free or were substantially improved” value is recorded as 171 and the “patients with no improvement” value was 7. For the same compound, the “number of treatments after which improvement of the indicated disorder occurred” value in data set [4] (subcutaneous injection of 100-200 ml CO2 gas daily or twice-weekly) is 4-5 treatments.
